These results are taken from US10640506B2, “Cyclobutyl substituted pyrrolopyridine and pyrrolopyrimidines derivatives as JAK inhibitors” (Incyte Corporation, priority 2010, dated 2020).

SMILES strings stand for the structures. pIC50: −log10 of the molar value.

The target in one assay is T1, JAK2 (a.a. 828-1132) (Homo sapiens, UniProt O60674).
T1 construct: JAK2 (a.a. 828-1132); His tag (N)
Briefly: In vitro JAK kinase assay (HTRF, phosphorylation of biotinylated peptide), JAK2. It is filed as biochemical. The conditions noted are these: Table F; 1 mM ATP. Put shortly: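 HTRF detection (Eu-Py20, SA-APC, 40 min) of biotinylated-peptide phosphorylation, following a 1 hour room-temperature reaction quenched with 45 mM EDTA. Enzymes: insect-cell-expressed N-terminal His-tagged JAK1 (837-1142) and JAK2 (828-1132) catalytic domains. Activities reported in ranged categories.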
In general terms: Time-resolved FRET reads energy transfer from a long-lived donor to a nearby acceptor.

The target in assay [1] is human JAK1 (a.a. 837-1142) (Homo sapiens, UniProt P23458). Briefly: In vitro JAK kinase assay (HTRF, phosphorylation of biotinylated peptide), JAK1. The conditions noted are these: Table F; 1 mM ATP. It is filed as biochemical. The procedure, abridged:
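Phosphorylation of a biotinylated peptide was run at room temperature for 1 hour using the N-terminally His-tagged JAK1 kinase domain (837-1142) from insect cells. After an EDTA stop, Eu-Py20 and SA-APC gave an HTRF read; values are binned potency ranges.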

Sequence of human JAK1 (a.a. 837-1142) (P23458 849-1154): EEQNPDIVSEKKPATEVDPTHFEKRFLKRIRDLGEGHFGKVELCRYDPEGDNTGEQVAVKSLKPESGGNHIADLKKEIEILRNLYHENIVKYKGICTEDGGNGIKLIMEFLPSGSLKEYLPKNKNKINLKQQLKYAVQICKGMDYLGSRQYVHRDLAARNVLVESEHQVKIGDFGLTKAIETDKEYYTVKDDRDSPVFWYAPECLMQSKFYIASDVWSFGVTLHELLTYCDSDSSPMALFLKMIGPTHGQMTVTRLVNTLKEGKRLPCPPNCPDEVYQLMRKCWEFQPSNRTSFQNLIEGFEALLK
T1 sequence (O60674 828-1132): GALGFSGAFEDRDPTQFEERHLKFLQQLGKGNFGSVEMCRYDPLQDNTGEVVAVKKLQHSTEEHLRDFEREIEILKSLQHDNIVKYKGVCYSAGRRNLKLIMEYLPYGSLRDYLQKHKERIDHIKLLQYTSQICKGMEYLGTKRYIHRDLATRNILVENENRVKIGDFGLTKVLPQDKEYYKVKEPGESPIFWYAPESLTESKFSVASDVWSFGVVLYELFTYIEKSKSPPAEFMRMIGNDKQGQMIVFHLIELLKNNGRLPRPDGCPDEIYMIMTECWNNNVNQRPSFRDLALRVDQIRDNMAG

Usually pIC50 stands for −log10 of the IC50, conventionally taken in molar units. Read a low pIC50 as a large IC50. On to `CC(C)(C)NCc1cc(C(=O)N2CCN([C@H]3C[C@](CC#N)(n4cc(-c5ncnc6[nH]ccc56)cn4)C3)CC2)nc(C(F)(F)F)n1` [Example 57, {trans-3-(4-{[6-[(tert-butylamino)methyl]-2-(trifluoromethyl)pyrimidin-4-yl]carbonyl}piperazin-1-yl)-1-[4-(7H-pyrrolo[2,3-d]pyrimidin-4-yl)-1H-pyrazol-1-yl]cyclobutyl}acetonitrile], for which the figures for the pIC50 (against JAK2 (a.a. 828-1132); in assay [1]) were 7.60 to 8.00 and greater than 8.00, respectively.

Take `CC(C)(O)c1cc(C(=O)N2CCN([C@H]3C[C@](CC#N)(n4cc(-c5ncnc6[nH]ccc56)cn4)C3)CC2)nc(C(F)(F)F)n1` [Example 58, {trans-3-(4-{[6-(1-hydroxy-1-methylethyl)-2-(trifluoromethyl)pyrimidin-4-yl]carbonyl}piperazin-1-yl)-1-[4-(7H-pyrrolo[2,3-d]pyrimidin-4-yl)-1H-pyrazol-1-yl]cyclobutyl}acetonitrile]: the figures for the pIC50 (against JAK2 (a.a. 828-1132); in assay [1]) were 7.60 to 8.00 and greater than 8.00, respectively.

Take `CC(C)(O)c1cc(C(=O)N2CCN([C@H]3C[C@@](CC#N)(n4cc(-c5ncnc6[nH]ccc56)cn4)C3)CC2)nc(C(F)(F)F)n1` [Example 59, {cis-3-(4-{[6-(1-hydroxy-1-methylethyl)-2-(trifluoromethyl)pyrimidin-4-yl]carbonyl}piperazin-1-yl)-1-[4-(7H-pyrrolo[2,3-d]pyrimidin-4-yl)-1H-pyrazol-1-yl]cyclobutyl}acetonitrile]: the pIC50 against JAK2 (a.a. 828-1132) was 7.00 to 7.60; in assay [1], greater than 8.00.

As to `COCc1cc(C(=O)N2CCN([C@H]3C[C@](CC#N)(n4cc(-c5ncnc6[nH]ccc56)cn4)C3)CC2)nc(C(F)(F)F)n1` [Example 60, {trans-3-(4-{[6-(methoxymethyl)-2-(trifluoromethyl)pyrimidin-4-yl]carbonyl}piperazin-1-yl)-1-[4-(7H-pyrrolo[2,3-d]pyrimidin-4-yl)-1H-pyrazol-1-yl]cyclobutyl}acetonitrile], the negative-log IC50 (pIC50) at JAK2 (a.a. 828-1132) is 7.00 to 7.60; in assay [1] it was greater than 8.00.

Consider `N#CC[C@]1(n2cc(-c3ncnc4[nH]ccc34)cn2)C[C@H](N2CCN(C(=O)c3cc(C4(N)CCC4)nc(C(F)(F)F)n3)CC2)C1` [Example 61, {trans-3-(4-{[6-(1-aminocyclobutyl)-2-(trifluoromethyl)pyrimidin-4-yl]carbonyl}piperazin-1-yl)-1-[4-(7H-pyrrolo[2,3-d]pyrimidin-4-yl)-1H-pyrazol-1-yl]cyclobutyl}acetonitrile], for which the negative-log IC50 (pIC50) (against JAK2 (a.a. 828-1132); in assay [1]) was greater than 8.00 in each case.

With `N#CC[C@]1(n2cc(-c3ncnc4[nH]ccc34)cn2)C[C@@H](N2CCN(C(=O)c3cc(C4(N)CCC4)nc(C(F)(F)F)n3)CC2)C1` [Example 62, {cis-3-(4-{[6-(1-aminocyclobutyl)-2-(trifluoromethyl)pyrimidin-4-yl]carbonyl}piperazin-1-yl)-1-[4-(7H-pyrrolo[2,3-d]pyrimidin-4-yl)-1H-pyrazol-1-yl]cyclobutyl}acetonitrile], the pIC50 (on JAK2 (a.a. 828-1132); in assay [1]) was greater than 8.00 throughout.

Take `CN(C)C1(c2cc(C(=O)N3CCN([C@H]4C[C@](CC#N)(n5cc(-c6ncnc7[nH]ccc67)cn5)C4)CC3)nc(C(F)(F)F)n2)CCC1` [Example 63, {trans-3-(4-{[6-[1-(dimethylamino)cyclobutyl]-2-(trifluoromethyl)pyrimidin-4-yl]carbonyl}piperazin-1-yl)-1-[4-(7H-pyrrolo[2,3-d]pyrimidin-4-yl)-1H-pyrazol-1-yl]cyclobutyl}acetonitrile]: the pIC50 against JAK2 (a.a. 828-1132) was 7.00 to 7.60; in assay [1], greater than 8.00.

For the molecule `CN(C)C1(c2cc(C(=O)N3CCN([C@H]4C[C@@](CC#N)(n5cc(-c6ncnc7[nH]ccc67)cn5)C4)CC3)nc(C(F)(F)F)n2)CCC1` [Example 64, {cis-3-(4-{[6-[1-(dimethylamino)cyclobutyl]-2-(trifluoromethyl)pyrimidin-4-yl]carbonyl}piperazin-1-yl)-1-[4-(7H-pyrrolo[2,3-d]pyrimidin-4-yl)-1H-pyrazol-1-yl]cyclobutyl}acetonitrile], the pIC50 is 7.00 to 7.60 at JAK2 (a.a. 828-1132) and greater than 8.00 in assay [1].

Consider `CN(C)Cc1cc(C(=O)N2CCN([C@H]3C[C@](CC#N)(n4cc(-c5ncnc6[nH]ccc56)cn4)C3)CC2)nc(C(F)(F)F)c1` [Example 65, {trans-3-(4-{[4-[(dimethylamino)methyl]-6-(trifluoromethyl)pyridin-2-yl]carbonyl}piperazin-1-yl)-1-[4-(7H-pyrrolo[2,3-d]pyrimidin-4-yl)-1H-pyrazol-1-yl]cyclobutyl}acetonitrile], for which the negative logarithm of the IC50 (pIC50) against JAK2 (a.a. 828-1132) was 7.00 to 7.60; in assay [1], greater than 8.00.

Regarding `N#CC[C@]1(n2cc(-c3ncnc4[nH]ccc34)cn2)C[C@H](N2CCN(C(=O)c3cc(CO)cc(C(F)(F)F)n3)CC2)C1` [Example 66, {trans-3-(4-{[4-(hydroxymethyl)-6-(trifluoromethyl)pyridin-2-yl]carbonyl}piperazin-1-yl)-1-[4-(7H-pyrrolo[2,3-d]pyrimidin-4-yl)-1H-pyrazol-1-yl]cyclobutyl}acetonitrile], the pIC50 against JAK2 (a.a. 828-1132) was 7.00 to 7.60; in assay [1] it was greater than 8.00.

As for `N#CC[C@]1(n2cc(-c3ncnc4[nH]ccc34)cn2)C[C@H](N2CCN(C(=O)c3cc(CN)cc(C(F)(F)F)n3)CC2)C1` [Example 67, {trans-3-(4-{[4-(aminomethyl)-6-(trifluoromethyl)pyridin-2-yl]carbonyl}piperazin-1-yl)-1-[4-(7H-pyrrolo[2,3-d]pyrimidin-4-yl)-1H-pyrazol-1-yl]cyclobutyl}acetonitrile], the negative-log IC50 (pIC50) against JAK2 (a.a. 828-1132) is 7.00 to 7.60; in assay [1], greater than 8.00.

As to `CNCc1cc(C(=O)N2CCN([C@H]3C[C@](CC#N)(n4cc(-c5ncnc6[nH]ccc56)cn4)C3)CC2)nc(C(F)(F)F)c1` [Example 68, {trans-3-(4-{[4-[(methylamino)methyl]-6-(trifluoromethyl)pyridin-2-yl]carbonyl}piperazin-1-yl)-1-[4-(7H-pyrrolo[2,3-d]pyrimidin-4-yl)-1H-pyrazol-1-yl]cyclobutyl}acetonitrile], the pIC50 on JAK2 (a.a. 828-1132) is 7.60 to 8.00; in assay [1] it was greater than 8.00.

Turning to `COC(C)(C)c1cc(C(=O)N2CCN([C@H]3C[C@](CC#N)(n4cc(-c5ncnc6[nH]ccc56)cn4)C3)CC2)nc(C(F)(F)F)n1` [Example 69, {trans-3-(4-{[6-(1-methoxy-1-methylethyl)-2-(trifluoromethyl)pyrimidin-4-yl]carbonyl}piperazin-1-yl)-1-[4-(7H-pyrrolo[2,3-d]pyrimidin-4-yl)-1H-pyrazol-1-yl]cyclobutyl}acetonitrile], the pIC50 against JAK2 (a.a. 828-1132) is 7.00 to 7.60; in assay [1], greater than 8.00.

`CNC1(c2cc(C(=O)N3CCN([C@H]4C[C@](CC#N)(n5cc(-c6ncnc7[nH]ccc67)cn5)C4)CC3)nc(C(F)(F)F)n2)CCC1` [Example 70, {trans-3-(4-{[6-[1-(methylamino)cyclobutyl]-2-(trifluoromethyl)pyrimidin-4-yl]carbonyl}piperazin-1-yl)-1-[4-(7H-pyrrolo[2,3-d]pyrimidin-4-yl)-1H-pyrazol-1-yl]cyclobutyl}acetonitrile]: the pIC50 (against JAK2 (a.a. 828-1132); in assay [1]) was greater than 8.00 in each case.

As for `N#CC[C@]1(n2cc(-c3ncnc4[nH]ccc34)cn2)C[C@H](N2CCN(C(=O)c3cc(C#N)cc(C(F)(F)F)n3)CC2)C1` [Example 71, 2-[(4-{trans-3-(cyanomethyl)-3-[4-(7H-pyrrolo[2,3-d]pyrimidin-4-yl)-1H-pyrazol-1-yl]cyclobutyl}piperazin-1-yl)carbonyl]-6-(trifluoromethyl)isonicotinonitrile], the pIC50 against JAK2 (a.a. 828-1132) is 7.00 to 7.60; in assay [1], greater than 8.00.

For `N#CC[C@]1(n2cc(-c3ncnc4[nH]ccc34)cn2)C[C@H](N2CCN(C(=O)c3cc(C4(O)CCC4)nc(C(F)(F)F)n3)CC2)C1` [Example 72, {trans-3-(4-{[6-(1-hydroxycyclobutyl)-2-(trifluoromethyl)pyrimidin-4-yl]carbonyl}piperazin-1-yl)-1-[4-(7H-pyrrolo[2,3-d]pyrimidin-4-yl)-1H-pyrazol-1-yl]cyclobutyl}acetonitrile], the figures for the pIC50 (against JAK2 (a.a. 828-1132); in assay [1]) were 7.60 to 8.00 and greater than 8.00, respectively.

For `N#CC[C@]1(n2cc(-c3ncnc4[nH]ccc34)cn2)C[C@H](N2CCN(C(=O)c3cc(C4=NCCN4)cc(C(F)(F)F)n3)CC2)C1` [Example 73, {trans-3-(4-{[4-(4,5-dihydro-1H-imidazol-2-yl)-6-(trifluoromethyl)pyridin-2-yl]carbonyl}piperazin-1-yl)-1-[4-(7H-pyrrolo[2,3-d]pyrimidin-4-yl)-1H-pyrazol-1-yl]cyclobutyl}acetonitrile], the pIC50 against JAK2 (a.a. 828-1132) is 7.60 to 8.00; in assay [1], greater than 8.00.

Turning to `CN(C)Cc1cc(C(=O)N2CCN([C@H]3C[C@](CC#N)(n4cc(-c5ncnc6[nH]ccc56)cn4)C3)CC2)cc(C(F)F)c1` [Example 74, {trans-3-(4-{3-(difluoromethyl)-5-[(dimethylamino)methyl]benzoyl}piperazin-1-yl)-1-[4-(7H-pyrrolo[2,3-d]pyrimidin-4-yl)-1H-pyrazol-1-yl]cyclobutyl}acetonitrile], the pIC50 against JAK2 (a.a. 828-1132) was 7.60 to 8.00; in assay [1], greater than 8.00.

Regarding `CC(C)(O)c1cc(C(=O)N2CCN([C@H]3C[C@](CC#N)(n4cc(-c5ncnc6[nH]ccc56)cn4)C3)CC2)nc(C(F)(F)F)c1` [Example 75, {trans-3-(4-{[4-(1-hydroxy-1-methylethyl)-6-(trifluoromethyl)pyridin-2-yl]carbonyl}piperazin-1-yl)-1-[4-(7H-pyrrolo[2,3-d]pyrimidin-4-yl)-1H-pyrazol-1-yl]cyclobutyl}acetonitrile], the pIC50 is 7.60 to 8.00 on JAK2 (a.a. 828-1132) and greater than 8.00 in assay [1].
